Measured values as given in patent publication US8445505B2 (IRM LLC, priority 2008, dated 2013).
pIC50: −log10 of the molar value.

molecular target: IGF1R Ba/F3 (Homo sapiens, UniProt P08069); assay: Ba/F3 Cell Viability Inhibition Assay (Tel-TK transformed Ba/F3 lines); type: cell-based, murine; parameters: the printed alternative; conditions: Tel-TK (IGF1R) transformed Ba/F3 cells, 48 hours incubation, cell viability (Britelite luminescence)
From the text: Ba/F3 is a murine IL-3-dependent pro-B lymphoma cell line. Parental Ba/F3 cells are used to generate a panel of sublines whose proliferation and survival is rendered IL-3-independent by stable transduction with individual tyrosine kinases activated by fusion with the amino-terminal portion of TEL (amino acid 1-375) or BCR. In order to generate Ba/F3 cell lines transformed by Tel-Tyrosine Kinase (TK) fusions, parental Ba/F3 cells are infected with a retrovirus harboring each TEL-fusion kinase and subjected to puromycin selection and IL-3 withdrawal to obtain IL-3-independent, transformed Ba/F3 cells.
Each transformed Ba/F3 cells are cultured in RPMI-1640 media (Gibco Cat #11875093, Carlsbad, Calif.) supplemented with 10% FBS (Hyclone Cat #SV30014.03, Logan, Utah), 4.5 g/L glucose (Sigma #G5400, St.Louis, Mo.), 1.5 g/L sodium bicarbonate (Biowhittaker #17-613E, Walkersville, Md.) and Pen/Strep (Gibco #10378-016, Carlsbad, Calif.). Cells are splitted twice weekly.
The potency of test compounds against various Tel-TK transformed Ba/F3 lines is determined as follows. Exponentially growing BaF3 Tel-TK cells are diluted in fresh medium to 75,000 cells/mL and seeded into 384-well plates (3750 cells/well) at 50 μL/well using a gill liquid dispenser (BioTek, Winooski, Vt., USA). Duplicate plates are run for each cell line. Test and control compounds are serially diluted with DMSO and arrayed in a polypropylene 384-well plate. 50 nL of compound is transferred into the assay plates using a pin-transfer device, and the plates are incubated at 37° C. (5% CO2) for 48 hours. 25 μL Britelite (Perkin Elmer) is added and luminescence is quantified using Analyst GT (Molecular Devices). Custom curve-fitting software is used to produce a logistic fit of percent cell viability as a function of the logarithm of inhibitor concentration. The IC50 is interpolated as the concentration of compound needed to reduce cell viability to 50% of a DMSO control. Parental Ba/F3 cells that are maintained and cultured in presence of IL-3 (1 ng/ml in final) are diluted in fresh medium containing IL-3 (1 ng/ml in final) to 75,000 cells/mL following the same procedure as described above.

IGF1R Ba/F3, sequence (P08069 999-1274 limits assumed): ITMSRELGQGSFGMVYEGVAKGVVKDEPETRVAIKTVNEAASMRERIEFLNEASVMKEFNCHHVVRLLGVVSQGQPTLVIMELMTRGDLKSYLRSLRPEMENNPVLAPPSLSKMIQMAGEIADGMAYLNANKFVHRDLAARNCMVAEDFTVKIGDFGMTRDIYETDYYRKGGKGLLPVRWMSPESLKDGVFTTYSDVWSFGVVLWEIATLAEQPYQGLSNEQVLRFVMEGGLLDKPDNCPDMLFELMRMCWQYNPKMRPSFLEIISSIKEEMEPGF

Point of comparison: `COc1cc(-c2cnco2)c(C)cc1Nc1ncc(Cl)c(Nc2cc(C)[nH]n2)n1` [Compound 21, 5-chloro-N2-(2-methoxy-5-methyl-4-(oxazol-5-yl)phenyl)-N4-(5-methyl-1H-pyrazol-3-yl)pyrimidine-2,4-diamine], pIC50 6.77. Against it:
- Cc1cc(Nc2nc(Nc3cc(C)c(-c4cnn(C)c4)cc3F)ncc2Cl)n[nH]1 [Compound 1, 5-chloro-N2-(2-fluoro-5-methyl-4-(1-methyl-1H-pyrazol-4-yl)phenyl)-N4-(5-methyl-1H-pyrazol-3-yl)pyrimidine-2,4-diamine] — 0.40 log units higher, 7.17
- Cc1cc(Nc2nc(Nc3cc(C)c(-c4ccncc4)cc3F)ncc2Cl)n[nH]1 [Compound 2, 5-chloro-N2-(2-fluoro-5-methyl-4-(pyridin-4-yl)phenyl)-N4-(5-methyl-1H-pyrazol-3-yl)pyrimidine-2,4-diamine] — 0.22 log units higher, 6.99
- Cc1cc(Nc2nc(Nc3cc(C)c(-c4cccnc4)cc3F)ncc2Cl)n[nH]1 [Compound 3, 5-chloro-N2-(2-fluoro-5-methyl-4-(pyridin-3-yl)phenyl)-N4-(5-methyl-1H-pyrazol-3-yl)pyrimidine-2,4-diamine] — 0.40 log units higher, 7.17
- CNC(=O)c1ccc(-c2cc(F)c(Nc3ncc(Cl)c(Nc4cc(C)[nH]n4)n3)cc2C)cn1 [Compound 4, 5-(4-(5-chloro-4-(5-methyl-1H-pyrazol-3-ylamino)pyrimidin-2-ylamino)-5-fluoro-2-methylphenyl)-N-methylpicolinamide] — 0.28 log units higher, 7.05
- Cc1ccc(-c2cc(F)c(Nc3ncc(Cl)c(Nc4cc(C)[nH]n4)n3)cc2C)cn1 [Compound 5, 5-chloro-N2-(2-fluoro-5-methyl-4-(6-methylpyridin-3-yl)phenyl)-N4-(5-methyl-1H-pyrazol-3-yl)pyrimidine-2,4-diamine] — within 0.2 log units, 6.86
- Cc1cc(Nc2nc(Nc3cc(C)c(-c4ccccn4)cc3F)ncc2Cl)n[nH]1 [Compound 6, 5-chloro-N2-(2-fluoro-5-methyl-4-(pyridin-2-yl)phenyl)-N4-(5-methyl-1H-pyrazol-3-yl)pyrimidine-2,4-diamine] — 0.24 log units lower, 6.53
- Cc1cc(Nc2nc(Nc3cc(C)c(-c4cnc5ccccc5c4)cc3F)ncc2Cl)n[nH]1 [Compound 7, 5-chloro-N2-(2-fluoro-5-methyl-4-(quinolin-3-yl)phenyl)-N4-(5-methyl-1H-pyrazol-3-yl)pyrimidine-2,4-diamine] — 0.53 log units lower, 6.24
- Cc1cc(Nc2nc(Nc3cc(C)c(-c4ccc(O)nc4)cc3F)ncc2Cl)n[nH]1 [Compound 8, 5-(4-(5-chloro-4-(5-methyl-1H-pyrazol-3-ylamino)pyrimidin-2-ylamino)-5-fluoro-2-methylphenyl)pyridin-2-ol] — 0.49 log units higher, 7.26
- Cc1cc(-c2cc(F)c(Nc3ncc(Cl)c(Nc4cc(C)[nH]n4)n3)cc2C)ccn1 [Compound 9, 5-chloro-N2-(2-fluoro-5-methyl-4-(2-methylpyridin-4-yl)phenyl)-N4-(5-methyl-1H-pyrazol-3-yl)pyrimidine-2,4-diamine] — 0.26 log units higher, 7.03
- Cc1cc(Nc2nc(Nc3cc(C)c(-c4ccsc4)cc3F)ncc2Cl)n[nH]1 [Compound 10, 5-chloro-N2-(2-fluoro-5-methyl-4-(thiophen-3-yl)phenyl)-N4-(5-methyl-1H-pyrazol-3-yl)pyrimidine-2,4-diamine] — 0.69 log units lower, 6.08
- Cc1cc(Nc2nc(Nc3cc(C)c(-c4ccoc4)cc3F)ncc2Cl)n[nH]1 [Compound 11, 5-chloro-N2-(2-fluoro-4-(furan-3-yl)-5-methylphenyl)-N4-(5-methyl-1H-pyrazol-3-yl)pyrimidine-2,4-diamine] — 0.60 log units lower, 6.17
- Cc1cc(Nc2nc(Nc3cc(C)c(-c4cnn(C)c4)cc3C)ncc2Cl)n[nH]1 [Compound 12, 5-chloro-N2-(2,5-dimethyl-4-(1-methyl-1H-pyrazol-4-yl)phenyl)-N4-(5-methyl-1H-pyrazol-3-yl)pyrimidine-2,4-diamine] — 0.83 log units higher, 7.60
- CNC(=O)c1ccc(-c2cc(C)c(Nc3ncc(Cl)c(Nc4cc(C)[nH]n4)n3)cc2C)cn1 [Compound 14, 5-(4-(5-chloro-4-(5-methyl-1H-pyrazol-3-ylamino)pyrimidin-2-ylamino)-2,5-dimethylphenyl)-N-methylpicolinamide] — 1.05 log units higher, 7.82
- Cc1cc(-c2cc(C)c(Nc3ncc(Cl)c(Nc4cc(C)[nH]n4)n3)cc2C)ccn1 [Compound 15, 5-chloro-N2-(2,5-dimethyl-4-(2-methylpyridin-4-yl)phenyl)-N4-(5-methyl-1H-pyrazol-3-yl)pyrimidine-2,4-diamine] — 0.64 log units higher, 7.41
- Cc1ccc(-c2cc(C)c(Nc3ncc(Cl)c(Nc4cc(C)[nH]n4)n3)cc2C)cn1 [Compound 16, 5-chloro-N2-(2,5-dimethyl-4-(6-methylpyridin-3-yl)phenyl)-N4-(5-methyl-1H-pyrazol-3-yl)pyrimidine-2,4-diamine] — 0.75 log units higher, 7.52
- Cc1cc(Nc2nc(Nc3cc(C)c(-c4ncc[nH]4)cc3C)ncc2Cl)n[nH]1 [Compound 17, N2-(4-(1H-imidazol-2-yl)-2,5-dimethylphenyl)-5-chloro-N4-(5-methyl-1H-pyrazol-3-yl)pyrimidine-2,4-diamine] — 0.40 log units higher, 7.17
- Cc1cc(-c2cc(C)c(Nc3ncc(Cl)c(Nc4cc(C)[nH]n4)n3)cc2C)on1 [Compound 18, 5-chloro-N2-(2,5-dimethyl-4-(3-methylisoxazol-5-yl)phenyl)-N4-(5-methyl-1H-pyrazol-3-yl)pyrimidine-2,4-diamine] — 0.21 log units lower, 6.56
- Cc1cc(Nc2nc(Nc3cc(C)c(-c4ncc[nH]4)cc3F)ncc2Cl)n[nH]1 [Compound 19, 5-chloro-N2-(2-fluoro-4-(1H-imidazol-2-yl)-5-methylphenyl)-N4-(5-methyl-1H-pyrazol-3-yl)pyrimidine-2,4-diamine] — 0.23 log units lower, 6.54
- Cc1cc(Nc2nc(Nc3cc(C)c(-c4cnco4)cc3C)ncc2Cl)n[nH]1 [Compound 20, 5-chloro-N2-(2,5-dimethyl-4-(oxazol-5-yl)phenyl)-N4-(5-methyl-1H-pyrazol-3-yl)pyrimidine-2,4-diamine] — within 0.2 log units, 6.96
- Cc1cc(-c2cc(C)c(Nc3ncc(Cl)c(Nc4cc(C)[nH]n4)n3)cc2C)[nH]n1 [Compound 22, 5-chloro-N2-(2,5-dimethyl-4-(3-methyl-1H-pyrazol-5-yl)phenyl)-N4-(5-methyl-1H-pyrazol-3-yl)pyrimidine-2,4-diamine] — within 0.2 log units, 6.78
- Cc1cc(Nc2nc(Nc3cc(C)c(-c4csc(C)n4)cc3C)ncc2Cl)n[nH]1 [Compound 24, 5-chloro-N2-(2,5-dimethyl-4-(2-methylthiazol-4-yl)phenyl)-N4-(5-methyl-1H-pyrazol-3-yl)pyrimidine-2,4-diamine] — 0.20 log units higher, 6.97
- Cc1cc(Nc2nc(Nc3cc(C)c(-c4nccn4C)cc3C)ncc2Cl)n[nH]1 [Compound 25, 5-chloro-N2-(2,5-dimethyl-4-(1-methyl-1H-imidazol-2-yl)phenyl)-N4-(5-methyl-1H-pyrazol-3-yl)pyrimidine-2,4-diamine] — 0.38 log units higher, 7.15
- Cc1cc(Nc2nc(Nc3cc(F)c(-c4cnn(C)c4)cc3C)ncc2Cl)n[nH]1 [Compound 27, 5-chloro-N2-(5-fluoro-2-methyl-4-(1-methyl-1H-pyrazol-4-yl)phenyl)-N4-(5-methyl-1H-pyrazol-3-yl)pyrimidine-2,4-diamine] — 0.51 log units lower, 6.26
- C/C(=N\OCCO)c1cc(C)c(Nc2ncc(Cl)c(Nc3cc(C)[nH]n3)n2)cc1C [Compound 28, 1-(4-(5-chloro-4-(5-methyl-1H-pyrazol-3-ylamino)pyrimidin-2-ylamino)-2,5-dimethylphenyl)ethanone O-2-hydroxyethyloxime] — within 0.2 log units, 6.85
- C/C(=N\O)c1cc(C)c(Nc2ncc(Cl)c(Nc3cc(C)[nH]n3)n2)cc1C [Compound 29, 1-(4-(5-chloro-4-(5-methyl-1H-pyrazol-3-ylamino)pyrimidin-2-ylamino)-2,5-dimethylphenyl)ethanone oxime] — 0.52 log units higher, 7.29
- Cc1cc(Nc2nc(Nc3cc(C)c(C(=O)N(C)C)cc3C)ncc2Cl)n[nH]1 [Compound 30, 4-(5-chloro-4-(5-methyl-1H-pyrazol-3-ylamino)pyrimidin-2-ylamino)-N,N,2,5-tetramethylbenzamide] — 0.50 log units lower, 6.27
- Cc1cc(Nc2nc(Nc3cc(C)c(C(=O)NCCN(C)C)cc3C)ncc2Cl)n[nH]1 [Compound 31, 4-(5-chloro-4-(5-methyl-1H-pyrazol-3-ylamino)pyrimidin-2-ylamino)-N-(2-(dimethylamino)ethyl)-2,5-dimethylbenzamide] — 0.59 log units lower, 6.18
- Cc1cc(Nc2nc(Nc3cc(C)c(C(=O)N4CCOCC4)cc3C)ncc2Cl)n[nH]1 [Compound 32, (4-(5-chloro-4-(5-methyl-1H-pyrazol-3-ylamino)pyrimidin-2-ylamino)-2,5-dimethylphenyl)(morpholino)methanone] — 0.42 log units lower, 6.35
